We go through 15 molecules from patent publication US20220289732A1, “HETEROCYCLIC WDR5 INHIBITORS AS ANTI-CANCER COMPOUNDS” (NOVARTIS AG, priority 2019, published 2022).

Molecules are shown by their SMILES.

Assay [1] deals with WDR5 (Homo sapiens, UniProt P61964). As to the kind of experiment: WDR5 HTRF binding assay. The settings on record: read-out: (a) WDR5 HTRF Pep Val v.1[Inhibitor/IC50]Qualified AC50. Here is the method:
The compounds were serially diluted 3-fold in DMSO to obtain a total of twelve concentrations. Then the test compounds at each concentration (90 nL of each) were transferred by Mosquito in the white Proxiplate plus 384-well microplate (Perkin Elmer). The assay mixture (typical 9 μL) containing 6 nM WDR5 and 20 nM Biotin-MLL1 WIN peptide (3762-3773) in the assay buffer (25 mM Hepes, pH7.5, 0.05% Tween 20, 2 mM DTT, 100 mM NaCl, 0.1% BSA) were added to the wells. For counter assay, a 9 μL solution of 15 nM Biotin-PEG-His peptide was added into the wells. After 20 min incubation at rt, a 3 μL detection solution containing 14 μg/ml Phycolink Streptavidin Allophycocyanin (Prozyme), 2 nM Anti-His-Eu (PerkinElmer) in assay buffer was then added. After 1 hr incubation, the plate was read in the EnVision reader (PerkinElmer) using the HTRF protocol (The protocol set-up: Lance/Delfia dual enhancer mirror, excitation at 320 UV2 (TRF), emission at APC665, 2nd emission at EuropiμM 615). HTRF signals were normalized based on the reading coming from the positive (maximum signal control) and negative controls (minimum signal control) to give percentage of activities left. The data were then fit to a dose response equation using the program Helios (Novartis) to get the IC50 values. Helios is a Novartis in-house assay data analysis software using the methods described by Normolle, D. P., Statistics in Medicine, 12:2025-2042 (1993); Formenko, I. et al., Computer Methods and programs in Biomedicine, 82, 31-37 (2006); Sebaugh, J. L., Pharmaceutical Statistics, 10:128-134 (2011); Kelly, C. et al., Biometrics, 46(4):1071-1085 (1990); and Kahm, M, et al., Journal of Statistical Software, 33(7):(2010) (grofit: Fitting Biological Growth Curves with R, pages 1-21, available at http://www.jstatsoft.org/).
(In general: Time-resolved FRET reads energy transfer from a long-lived donor to a nearby acceptor.)

Assay [2] deals with MV4-11 cells. As to the kind of experiment: MV4-11 6-day cell growth CTG (CellTiter-Glo) assay. The assay is classed as cell-based. The conditions noted are these: Homo sapiens, MV4-11, 144 h, 6 days, read-out: (c) MLL/WDR5 cell proliferation assay//MLL/WDR5 proliferation MV4:11 Qualified AC50. Here is the method:
MV4-11 6-Day Cell Growth CTG (CellTiter-Glo) Assay
Acute myeloid leukemia cell MV4-11 (ATCC® CRL-9591™) was cultured with RPMI 1640 medium (Thermo Fisher Scientific, cat #11875) supplemented with 10% FBS (Thermo Fisher Scientific, cat #10099141) in humidified incubator at 37° C., 5% CO2. To assess the effect of WDR5 inhibitor on cell growth, the compound of the present invention was dissolved in DMSO and serially diluted at 1:3 for 12 points starting from 10 mM then 200 nL for the replicate of each dose per well was dispensed to Viewplate-384 Black (Perkin Elmer). Exponentially growing MV4-11 cells were seeded at the density of 300 cells per well in 40 μL to the plate, so the final compound working concentration starts from 50 μM. After 6 days, 40 μL CellTiter-Glo (Promega, cat #G7573) was added into the cell culture well and luminescence was read with Envision (Perkin Elmer) to determine the viable cells. The percentage inhibition was calculated against the samples treated with DMSO only and the data were used for dose response curve fitting in GraphPad Prism to get the IC50 of representative compound of present invention, which reflects the inhibition of WDR5 activity in the proliferation of MV4;11.

Assay [3] has as its target wild type MLL1 four-member complex (MLL1-4C) (Homo sapiens, UniProt P61964). As to the kind of experiment: MLL1 LC-MS assay (SAH production). The format is biochemical. The settings on record: read-out: (b) MLL LCMS Peptide Val.v.1 Qualified AC50. The method, then:
The compounds of the present disclosure were serially and separately diluted 3-fold in DMSO to obtain a total of eight or twelve concentrations. Then the test compounds at each concentration (120 nL of each) were transferred by Mosquito into white Proxiplate plus 384-well microplate (PerkinElmer). Solutions (6 μL) of 60 nM wild type MLL1 four-member complex (MLL1-4C) and 5 μM SAM in the reaction buffer (20 mM Tris-HCl, pH8.0, 0.01% Tween 20, 1 mM DTT, 10 mM MgCl2, 0.01% BSA) were added to the wells that were then incubated with the test compound for 20 min. A 6 μL solution of 20 μM of the peptide substrate H3K4me0 (histone H3[1-21]-Biotin) in the reaction buffer was added to initiate each reaction. The final components in the reaction solution include 30 nM MLL1-4C, 2.5 μM SAM, and 10 μM H3K4me0 with varying concentration of the compounds. A positive control consisted of 30 nM MLL1-4C, 2.5 μM SAM, and 10 μM substrate in the absence of the test compound, and a negative control consisted of 2.5 μM SAM, and 10 μM substrate only. Each reaction was incubated at rt for 120 min, then stopped by addition of 3 μL per of quench solution (2.5% TFA with 320 nM d4-SAH). The reaction mixture was centrifuged (Eppendorf centrifuge 5810, Rotor A-4-62) for 2 min at 2000 rmp. The SAH production from the enzymatic assays were monitored by LC-MS/MS on an API 4000 triple quadrupole mass spec with Turbolon Spray (Applied Biosystem) coupled with Prominenece UFLC (Shimazu). The level of SAH production were then normalized based on the values coming from the positive and negative controls to give percent enzyme activities. The data were then fit to a dose response equation using the program Helios (Novartis) to get the IC50 values of the test compound. Helios is a Novartis in-house assay data analysis software using the methods described by Normolle, D. P., Statistics in Medicine, 12:2025-2042 (1993); Formenko, I. et al., Computer Methods and programs in Biomedicine, 82, 31-37 (2006); Sebaugh, J. L., Pharmaceutical Statistics, 10:128-134 (2011); Kelly, C. et al., Biometrics, 46(4):1071-1085 (1990); and Kahm, M, et al., Journal of Statistical Software, 33(7):(2010) (grofit: Fitting Biological Growth Curves with R, pages 1-21, available at http://www.jstatsoft.org/).

As to `CCOc1cc(CN2CCc3c(cc(CCN(C)CC)cc3-c3ccc(F)nc3C)C2=O)ncc1F` [Example 132, 2-((4-ethoxy-5-fluoropyridin-2-yl)methyl)-7-(2-(ethyl(methyl)amino)ethyl)-5-(6-fluoro-2-methylpyridin-3-yl)-3,4-dihydroisoquinolin-1(2H)-one], the IC50 in assay [1] was less than 10 nM. The AC50 in assay [2] and in assay [3] was 10 to 1000 nM throughout.
On to `CCOc1cc([C@H](C)N2CCc3c(cc(Cn4ccnc4C)cc3-c3cn(S(C)(=O)=O)nc3C)C2=O)ncc1C#N` [Example 284], for which the IC50 in assay [1] was less than 10 nM. Also, the AC50 in assay [2] and in assay [3] was 10 to 1000 nM in each case.
With `CCOc1cc([C@H](C)N2CCc3c(cc(CCN(C)CC)cc3-c3cc(C)nnc3C)C2=O)ncc1C#N` [Example 173, (S)-6-(1-(5-(3,6-dimethylpyridazin-4-yl)-7-(2-(ethyl(methyl)amino)ethyl)-1-oxo-3,4-dihydroisoquinolin-2(1H)-yl)ethyl)-4-ethoxynicotinonitrile], the IC50 in assay [1] is less than 10 nM. Also, the AC50 in assay [2] and in assay [3] was 10 to 1000 nM in each case.
For the molecule `CCOc1cc(CN2CCc3c(cc(CCN4C[C@@H](O)[C@H]4C)cc3-c3ccc(F)nc3C)C2=O)ncc1C#N` [Example 222], the IC50 in assay [1] was in the range of 10 to 1000 nM. Besides, the AC50 in assay [2] and in assay [3] was 10 to 1000 nM each time.
For `CCOc1cc([C@H](C)N2CCc3c(cc(Cn4ccnc4C)cc3-c3cc(C(F)F)cnc3C)C2=O)ncc1C#N` [Example 282], in assay [1], the IC50 is less than 10 nM. For the same molecule, the AC50 in assay [2] and in assay [3] was 10 to 1000 nM in each case.
As to `CCOc1cc([C@H](C)N2CCc3c(cc(CCN(C)CC)cc3-c3cc(C)cnc3Cl)C2=O)ncc1C#N` [Example 118, (S)-6-(1-(5-(2-chloro-5-methylpyridin-3-yl)-7-(2-(ethyl(methyl)amino)ethyl)-1-oxo-3,4-dihydroisoquinolin-2(1H)-yl)ethyl)-4-ethoxynicotinonitrile], the IC50 in assay [1] is less than 10 nM. Moreover, the AC50 in assay [2] and in assay [3] was 10 to 1000 nM throughout.
`CCOc1cc([C@H](C)N2CCc3c(cc(CCN(C)CC)cc3-c3cc(C(C)O)cnc3C)C2=O)ncc1C#N` (stereo partly drawn) [Example 186, 4-ethoxy-6-((1S)-1-(7-(2-(ethyl(methyl)amino)ethyl)-5-(5-(1-hydroxyethyl)-2-methylpyridin-3-yl)-1-oxo-3,4-dihydroisoquinolin-2(1H)-yl)ethyl)nicotinonitrile]: the IC50 in assay [1] is less than 10 nM. In addition, the AC50 in assay [2] and in assay [3] was 10 to 1000 nM throughout.
As to `CCOc1cc(C(C)N2CCc3c(cc(CCN(C)CC)cc3C(O)C(F)(F)F)C2=O)ncc1F` (stereo not drawn) [compound 260], the IC50 in assay [1] lay within 10 to 1000 nM. Also, the AC50 in assay [2] and in assay [3] was 10 to 1000 nM each time.
For the molecule `CCOc1cc([C@H](C)N2CCc3c(cc(CCN(C)CC)cc3-c3cccnc3C(F)F)C2=O)ncc1C#N` [Example 119, (S)-6-(1-(5-(2-(difluoromethyl)pyridin-3-yl)-7-(2-(ethyl(methyl)amino)ethyl)-1-oxo-3,4-dihydroisoquinolin-2(1H)-yl)ethyl)-4-ethoxynicotinonitrile], the IC50 in assay [1] is less than 10 nM. Besides, the AC50 in assay [2] and in assay [3] was 10 to 1000 nM in each case.
For the molecule `CCOc1cc([C@H](C)N2CCc3c(cc(Cn4ccnc4C)cc3-c3nn(C)nc3C)C2=O)ncc1C#N` [Example 290], in assay [1], the IC50 was less than 10 nM. In addition, the AC50 in assay [2] and in assay [3] was 10 to 1000 nM in each case.
In the case of `CCOc1cc([C@H](C)N2CCc3c(cc(CCN(C)CC)cc3-c3c[nH]c(=O)cc3C(F)(F)F)C2=O)ncc1C#N` [Example 176, (S)-4-ethoxy-6-(1-(7-(2-(ethyl(methyl)amino)ethyl)-1-oxo-5-(6-oxo-4-(trifluoromethyl)-1,6-dihydropyridin-3-yl)-3,4-dihydroisoquinolin-2(1H)-yl)ethyl)nicotinonitrile], in assay [1], the IC50 was less than 10 nM. In addition, the AC50 was less than 10 nM in assay [2] and 10 to 1000 nM in assay [3].
Regarding `CCOc1cc([C@H](C)N2CCc3c(cc(CCN(C)CC)cc3-c3cn(C)nc3C)C2=O)ncc1C#N` [Example 134, (S)-6-(1-(5-(1,3-dimethyl-1H-pyrazol-4-yl)-7-(2-(ethyl(methyl)amino)ethyl)-1-oxo-3,4-dihydroisoquinolin-2(1H)-yl)ethyl)-4-ethoxynicotinonitrile], in assay [1], the IC50 was less than 10 nM. Moreover, the AC50 in assay [2] and in assay [3] was 10 to 1000 nM in each case.
Turning to `CNc1nccn1Cc1cc(-c2cc(CO)cnc2Cl)c2ccn(Cc3cc4ccccc4[nH]3)c(=O)c2c1` [Example 108, 2-((1H-indol-2-yl)methyl)-5-(2-chloro-5-(hydroxymethyl)pyridin-3-yl)-7-((2-(methylamino)-1H-imidazol-1-yl)methyl)isoquinolin-1(2H)-one], the IC50 in assay [1] was 10 to 1000 nM. Besides, the AC50 in assay [2] and in assay [3] was 10 to 1000 nM each time.
With `CCOc1cc([C@H](C)N2CCc3c(cc(CCN(C)CC)cc3-c3cc(C)ncc3F)C2=O)ncc1C#N` [Example 142, (S)-4-ethoxy-6-(1-(7-(2-(ethyl(methyl)amino)ethyl)-5-(5-fluoro-2-methylpyridin-4-yl)-1-oxo-3,4-dihydroisoquinolin-2(1H)-yl)ethyl)nicotinonitrile], the IC50 in assay [1] is 10 to 1000 nM. Further, the AC50 in assay [2] and in assay [3] was 10 to 1000 nM throughout.
As to `CNc1nccn1Cc1cc2c(c(-c3c[nH]nc3C)c1)CCN(Cc1ccc(F)c(OC)c1)C2=O` [Example 55, 2-(4-fluoro-3-methoxybenzyl)-5-(3-methyl-1H-pyrazol-4-yl)-7-((2-(methylamino)-1H-imidazol-1-yl)methyl)-3,4-dihydroisoquinolin-1(2H)-one], in assay [1], the IC50 lay in the range of 10 to 1000 nM. The AC50 in assay [2] and in assay [3] was 10 to 1000 nM throughout.
